Assay results published in ChEMBL document CHEMBL1158381, “Molecular properties of psychopharmacological drugs determining non-competitive inhibition of 5-HT3A receptors” (Eur J Med Chem, 2009).

target: T1, 5-hydroxytryptamine receptor 3A (Homo sapiens) (UniProt P46098); assay: Antagonist activity at human 5HT3A receptor expressed in HEK293 cells assessed as inhibition of serotonin-induced inward Na+ current at >= 10 uM; assay type: functional, cell-based
T1 sequence (whole entry): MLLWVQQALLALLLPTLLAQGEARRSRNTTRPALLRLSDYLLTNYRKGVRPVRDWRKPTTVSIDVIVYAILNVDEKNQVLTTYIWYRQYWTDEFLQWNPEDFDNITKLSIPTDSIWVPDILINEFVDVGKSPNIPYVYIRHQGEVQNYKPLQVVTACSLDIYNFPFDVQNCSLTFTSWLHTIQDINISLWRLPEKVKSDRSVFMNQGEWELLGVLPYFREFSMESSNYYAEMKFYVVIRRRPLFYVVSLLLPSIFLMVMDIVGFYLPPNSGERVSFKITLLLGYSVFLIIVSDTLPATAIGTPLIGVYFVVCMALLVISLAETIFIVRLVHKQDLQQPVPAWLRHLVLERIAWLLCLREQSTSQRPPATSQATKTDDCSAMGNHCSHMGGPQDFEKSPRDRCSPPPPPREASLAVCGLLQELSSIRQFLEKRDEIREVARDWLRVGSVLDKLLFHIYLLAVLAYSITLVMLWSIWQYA

`c1ccc2c(c1)Nc1ccccc1S2` and `FC(F)(F)c1ccc2c(c1)Nc1ccccc1S2` cannot be ordered by inhibition: less than 50% for the first, less than 50% for the second.

Compared with `Cc1nc2n(c(=O)c1CCN1CCC(c3noc4cc(F)ccc34)CC1)CCCC2`, `CSc1ccc2c(c1)N(CCC1CCCCN1C)c1ccccc1S2` (centres undefined) is higher in inhibition: less than 50% for the first, greater than 50% for the second.

`O=C(NCCN1CCOCC1)c1ccc(Cl)cc1` and `O=C(CCCN1CCC(O)(c2ccc(Cl)cc2)CC1)c1ccc(F)cc1` cannot be ordered by inhibition: less than 50% for the first, less than 50% for the second.

`CC(CN(C)C)CN1c2ccccc2CCc2ccccc21` (centres undefined) and `CN(C)CCCN1c2ccccc2CCc2ccccc21` cannot be ordered by inhibition: greater than 50% for the first, greater than 50% for the second.

First: NC(=O)N1c2ccccc2CCc2ccccc21
Second: CNCCCN1c2ccccc2CCc2ccccc21
The inhibition of the first is lower: less than 50% for the first, greater than 50% for the second.

`NC(=O)N1c2ccccc2C=Cc2ccccc21` and `c1ccc2nc3ccccc3cc2c1` cannot be ordered by inhibition: less than 50% for the first, less than 50% for the second.

Compared with `c1ccc2c(c1)CCc1ccccc1N2`, `c1ccc2c(c1)CCc1ccccc1C2` is lower in inhibition: greater than 50% for the first, less than 50% for the second.

`OCCN1CCN(CCCN2c3ccccc3Sc3ccc(C(F)(F)F)cc32)CC1` and `OCCN1CCN(CCC=C2c3ccccc3Sc3ccc(C(F)(F)F)cc32)CC1` cannot be ordered by inhibition: greater than 50% for the first, greater than 50% for the second.

`CCOc1ccccc1O[C@@H](c1ccccc1)[C@@H]1CNCCO1` and `CNCCC(Oc1ccc(C(F)(F)F)cc1)c1ccccc1` (centres undefined) cannot be ordered by inhibition: greater than 50% for the first, greater than 50% for the second.

Work on `COc1ccc2c(c1)N(C[C@H](C)CN(C)C)c1ccccc1S2` yielded an inhibition of less than 50%.
